# Tests used:
# Assay type in all cases: cell-based
# [1] = target: T1, M1 muscarinic receptor (Homo sapiens, UniProt P11229); test: Functional mobilization of intracellular calcium (FLIPR), M1-CHO cells; conditions: for Emax: 100% efficacy = maximum response obtained with the Carbachol control; for EC50: CHO cells expressing M1, calcium mobilization
# T1 construct: expressed in transfected cells; host or cells: CHO (M1-CHO)
# T1 sequence (P11229 1-460): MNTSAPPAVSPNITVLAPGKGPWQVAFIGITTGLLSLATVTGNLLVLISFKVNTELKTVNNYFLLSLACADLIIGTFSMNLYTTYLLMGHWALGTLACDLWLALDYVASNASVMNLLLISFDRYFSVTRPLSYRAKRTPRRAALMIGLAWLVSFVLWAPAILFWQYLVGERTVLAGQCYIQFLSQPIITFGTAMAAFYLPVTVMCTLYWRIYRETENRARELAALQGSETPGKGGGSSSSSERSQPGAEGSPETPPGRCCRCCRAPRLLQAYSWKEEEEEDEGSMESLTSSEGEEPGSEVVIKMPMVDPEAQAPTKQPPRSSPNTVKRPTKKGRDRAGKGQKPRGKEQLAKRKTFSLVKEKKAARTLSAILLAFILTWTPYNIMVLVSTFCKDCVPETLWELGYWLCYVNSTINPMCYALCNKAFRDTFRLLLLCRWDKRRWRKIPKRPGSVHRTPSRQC
# Method: (§1) Functional Mobilization of Intracellular Calcium to Determine Muscarinic Receptor Activity:
# (§2) CHO cells expressing muscarinic receptors (M1 to M5) are grown as monolayers in tissue culture flasks at 37° C. in a humidified atmosphere containing 5% CO2 and passaged every 3-5 days. The growth media is Dulbecco's modified eagles medium (DMEM, Gibco Cat# 12430-054), containing 25 mM Hepes and supplemented with Fetal Bovine Serum (Hyclone, cat #SH30071.03), 0.1 mM of MEM non-essential amino acids (GIBCO, Cat #11140-050), 1 mM MEM Sodium Pyruvate (GIBCO Cat #11360-070) and 100 units/ml of Penicillin G and 100 μg/ml of Streptomycin (GIBCO Cat #15140-122). The recombinant muscarinic receptor cell lines are grown under antibiotic pressure with media containing 25 μg/ml zeocin and 500 μg/ml G418 (M1-CHO), 4 μg/ml puromycin, 50 μg/ml zeocin and 2.5 μg/ml blasticidin (M2 and M4-CHO) or 50 μg/ml zeocin and 4 μg/ml puromycin (M3 and M5-CHO).
# (§3) Cells are harvested at 80-90% confluence using Versene (GIBCO Cat #15040-066), collected by centrifugation and seeded 18-24 hrs prior to running the calcium assay at a density of 5,000-10,000 cells/well in […], clear-bottomed 384-well plates (BD Biocoat, poly-D-lysine, Cat#356663). The day of the experiment, the cells are washed with a plate washer (Bioteck Instruments, ELX 405) using bath1 buffer (140-mM NaCl, 4.5-mM KCl, 2-mM CaCl2, 1-mM MgCl2, 10-mM Hepes-Na, 10-mM Glucose, pH 7.4, with NaOH) containing 1 mM Probenecid. Next, the calcium dye Fluo-3 (25 μl/well of Fluo-3 AM at 4 μM, Molecular Probes F-1241, in Bath 1 buffer containing 1 mM Probenecid) is added to the 25 μl of Bath 1 remaining in each well after the plate wash and the dye is loaded at 37° C. in the tissue culture incubator for 60-90 min. The fluorescent dye is removed using the plate washer with Bath 1 containing 1 mM Probenecid, leaving 25 μl/well of this solution after the wash. Alternatively, cells can be loaded with the calcium indicator from Molecular Devices (Calcium 3 Assay Reagents, Cat #R7181) adding 5 μl of a 5× solution dye in Bath 1 containing 1 mM Probenecid (10 ml per dye flask cat #R7182 to generate a solution 20×) to 20 μl of the same buffer. After loading for 60 min, the experiment can be run without having to remove the dye.
# (§4) Compounds are prepared at a 2× fold concentration in a 96-well plate (round bottom, Costar Corning cat #3656), by reconstituting the pre-spotted compounds in bath 1 containing 1 mM probenecid. The final concentration DMSO is 0.5%, and the amount of DMSO is normalized across the assay plate. To determine an agonist action of the compounds on muscarinic receptors, the reconstituted compounds are added (25 μl compound/well) to the cell assay plate (containing 25 μl/well) using the multi-channel robotic system of the FLIPR 3 Instrument (Molecular Devices, Sunnyvale, Calif.). To determine a functional inhibitory action of the compounds on muscarinic receptors, the reconstituted compounds are added (25 μl compound/well) to the assay plate and pre-incubated for 15 min prior to adding 25 μl of Carbachol at 3× the EC80 for each muscarinic subtype. Alternatively, the compounds can be co-applied simultaneously with the agonist. In both assay modes, the fluorescence is recorded for 60 sec (excitation wavelength is […] and emission wavelength 540 nm) using the FLIPR 3 instrument.
# (§5) The potency, efficacy and selectivity of the muscarinic compounds were evaluated by screening the compound activity across the whole family (M1 to M5 cells). Compounds were also screened for activity on other proteins such as other GPCRs and ion channels to determine selectivity on M4 receptors.
# (§6) Examples of activities and efficacies of the muscarinic compounds of formulae (I, Ia, and Ib) on modulating M1 and M4 receptors are shown below in Table 3. […]
# [2] = target: T2, M2 muscarinic receptor (Homo sapiens, UniProt P08172); test: Functional mobilization of intracellular calcium (FLIPR), M2-CHO cells; conditions: for Emax: 100% efficacy = maximum response obtained with the Carbachol control; for EC50: CHO cells expressing M2, calcium mobilization
# T2 construct: expressed in transfected cells; host or cells: CHO (M2-CHO)
# T2 sequence (P08172 1-466): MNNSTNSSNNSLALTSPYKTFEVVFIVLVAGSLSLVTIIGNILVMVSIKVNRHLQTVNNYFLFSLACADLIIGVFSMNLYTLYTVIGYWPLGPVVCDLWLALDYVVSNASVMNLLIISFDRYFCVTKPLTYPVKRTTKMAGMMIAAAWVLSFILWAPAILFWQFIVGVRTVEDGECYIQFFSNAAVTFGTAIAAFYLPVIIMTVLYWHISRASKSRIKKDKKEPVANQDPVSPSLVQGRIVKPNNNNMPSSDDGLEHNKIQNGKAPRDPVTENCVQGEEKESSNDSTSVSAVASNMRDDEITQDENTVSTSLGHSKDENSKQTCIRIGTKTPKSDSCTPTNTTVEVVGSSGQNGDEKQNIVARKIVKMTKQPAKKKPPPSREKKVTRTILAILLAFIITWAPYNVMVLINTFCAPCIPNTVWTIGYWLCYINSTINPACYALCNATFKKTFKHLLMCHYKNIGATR
# Method: as §1, §2, §3, §4, §5, §6
# [3] = target: T3, M3 muscarinic receptor (Homo sapiens, UniProt P20309); test: Functional mobilization of intracellular calcium (FLIPR), M3-CHO cells; conditions: for Emax: 100% efficacy = maximum response obtained with the Carbachol control; for EC50: CHO cells expressing M3, calcium mobilization
# T3 construct: expressed in transfected cells; host or cells: CHO (M3-CHO)
# Method: as §1, §2, §3, §4, §5, §6
# [4] = target: T4, M4 muscarinic receptor (Homo sapiens, UniProt P08173); test: Functional mobilization of intracellular calcium (FLIPR), M4-CHO cells; conditions: for Emax: 100% efficacy = maximum response obtained with the Carbachol control; for EC50: CHO cells expressing M4, calcium mobilization
# T4 construct: expressed in transfected cells; host or cells: CHO (M4-CHO)
# T4 sequence (P08173 1-479): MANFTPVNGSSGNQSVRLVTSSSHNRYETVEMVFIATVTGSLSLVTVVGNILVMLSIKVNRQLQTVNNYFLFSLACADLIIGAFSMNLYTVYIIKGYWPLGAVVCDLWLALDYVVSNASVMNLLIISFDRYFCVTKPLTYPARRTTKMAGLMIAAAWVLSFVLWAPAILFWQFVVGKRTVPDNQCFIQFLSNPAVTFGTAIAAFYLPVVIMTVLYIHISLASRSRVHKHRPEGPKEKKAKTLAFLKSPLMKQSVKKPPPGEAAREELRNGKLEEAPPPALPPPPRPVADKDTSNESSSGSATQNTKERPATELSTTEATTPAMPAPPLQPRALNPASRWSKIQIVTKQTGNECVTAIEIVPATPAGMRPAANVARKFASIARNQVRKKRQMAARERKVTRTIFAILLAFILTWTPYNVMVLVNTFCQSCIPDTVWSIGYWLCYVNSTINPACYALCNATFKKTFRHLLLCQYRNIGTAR
# Method: as §1, §2, §3, §4, §5, §6
# T3 sequence (P20309 whole entry): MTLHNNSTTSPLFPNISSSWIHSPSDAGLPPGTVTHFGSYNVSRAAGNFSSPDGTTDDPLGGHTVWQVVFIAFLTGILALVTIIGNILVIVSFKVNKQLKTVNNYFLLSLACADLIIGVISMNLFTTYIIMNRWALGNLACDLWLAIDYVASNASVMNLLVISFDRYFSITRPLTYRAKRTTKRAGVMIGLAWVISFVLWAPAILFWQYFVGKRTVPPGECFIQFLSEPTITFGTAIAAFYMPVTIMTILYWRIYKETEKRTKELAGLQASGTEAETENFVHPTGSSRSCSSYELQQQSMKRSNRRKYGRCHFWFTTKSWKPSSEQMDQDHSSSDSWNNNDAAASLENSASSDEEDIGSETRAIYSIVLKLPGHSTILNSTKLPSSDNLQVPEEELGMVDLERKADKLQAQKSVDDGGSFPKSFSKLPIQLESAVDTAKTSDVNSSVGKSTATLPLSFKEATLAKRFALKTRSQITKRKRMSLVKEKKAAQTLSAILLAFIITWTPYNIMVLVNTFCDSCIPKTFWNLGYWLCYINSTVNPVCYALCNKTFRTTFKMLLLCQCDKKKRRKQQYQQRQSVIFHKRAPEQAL
SMILES,Emax [1],EC50 [1],Emax [2],EC50 [2],Emax [3],EC50 [3],Emax [4],EC50 [4]
O=C1C[C@@H]2[C@H](N1)c1ccccc1C21CCN(C2CCCCC2)CC1 [Compound 31],25 to 100%,< 2 µM,< 25%,2 to 5 µM,< 25%,> 5 µM,25 to 100%,< 2 µM
O=C1C[C@@H]2CC3(CCN(C4CCCCC4)CC3)c3ccccc3[C@@H]2N1 [Compound 7],25 to 100%,< 2 µM,25 to 100%,< 2 µM,< 25%,> 5 µM,25 to 100%,< 2 µM
CCOC(=O)N1CCC(N2CCC3(CC2)C[C@H]2CC(=O)N(CC(=O)O)[C@H]2c2ccccc23)CC1 [Compound 13],25 to 100%,> 5 µM,< 25%,> 5 µM,< 25%,> 5 µM,25 to 100%,> 5 µM
CN1C(=O)C[C@@H]2CC3(CCN(C4CCCCCC4)CC3)c3ccccc3[C@@H]21 [Compound 10],25 to 100%,2 to 5 µM,25 to 100%,> 5 µM,< 25%,> 5 µM,25 to 100%,< 2 µM
O=C1CC2CC3(CCN(C4CC5CCC(C5)C4)CC3)c3ccccc3C2O1 (centres unmarked) [Compound 28],25 to 100%,< 2 µM,< 25%,> 5 µM,< 25%,> 5 µM,25 to 100%,< 2 µM
COCCN1C(=O)C[C@@H]2CC3(CCN(CC4CCCCC4)CC3)c3ccccc3[C@@H]21 [Compound 22],25 to 100%,2 to 5 µM,< 25%,> 5 µM,< 25%,> 5 µM,25 to 100%,< 2 µM
c1ccc2c(c1)C1OCCC1CC21CCN(CC2CCCCC2)CC1 (centres unmarked) [Compound 14],25 to 100%,> 5 µM,< 25%,> 5 µM,< 25%,> 5 µM,25 to 100%,< 2 µM

# Source: patent US7973162B2, “Modulators of muscarinic receptors” (Vertex Pharmaceuticals Incorporated, priority 2007, dated 2011)
